Reference: ChEMBL document CHEMBL5154783, “Design, synthesis, and evaluation of novel 3-thiophene derivatives as potent fungistatic and fungicidal reagents based on a conformational restriction strategy” (Eur J Med Chem, 2022)
Values after ≈ are worked out from the molar mass of the structure shown. Active and inactive are the calls of the source. The calls are words filed in the database; no cut-off is given here.

Tests used:
Candida albicans [1] = test: Antifungal activity against FLC-resistant Candida albicans 901 assessed as fungal growth inhibition by CLSI based serial microbroth dilution method; type: functional
Cryptococcus neoformans = test: Antifungal activity against Cryptococcus neoformans CGMCC 2.3161 assessed as fungal growth inhibition by CLSI based serial microbroth dilution method; type: functional
[2] = target: T1, Lanosterol 14-alpha demethylase (Candida albicans (strain SC5314 / ATCC MYA-2876) (Yeast), UniProt P10613); test: Inhibition of CYP51 in Candida albicans ATCC SC5314 assessed as ergosterol level at 0.25 ug/ml measured after 18 hrs by GC-MS analysis (reference value: 96.93 %); design: scale not given: the % may be the effect or the level left; settings: at 0.25 µg/mL
[3] = target: T1, Lanosterol 14-alpha demethylase; test: Inhibition of CYP51 in Candida albicans ATCC SC5314 assessed as lanosterol level at 0.25 ug/ml measured after 18 hrs by GC-MS analysis relative to control; design: scale not given: the % may be the effect or the level left; settings: at 0.25 µg/mL
Candida parapsilosis = test: Antifungal activity against Candida parapsilosis GIM 2.190 assessed as fungal growth inhibition by CLSI based serial microbroth dilution method; type: functional; settings: Lodderomyces parapsilosis
Candida albicans [4] = test: Antifungal activity against FLC-resistant Candida albicans 311 assessed as fungal growth inhibition by CLSI based serial microbroth dilution method; type: functional
Candida albicans [5] = test: Antifungal activity against FLC-resistant Candida albicans CaR assessed as fungal growth inhibition by CLSI based serial microbroth dilution method; type: functional
Candida albicans [6] = test: Antibiofilm activity against Candida albicans […] assessed as inhibition of […] metabolism activity in the biofilm measured after 48 hrs by XTT reduction assay; type: functional
Cell membrane [7] = test: Disruption of membrane integrity in Candida albicans ATCC SC5314 assessed as rupture of fungal cells at 16 ug/ml incubated for 48 hrs by transmission electron microscopy; type: subcellular; settings: dose 16.0 µg/ml
Candida albicans [8] = test: Antibiofilm activity against Candida albicans […] assessed as inhibition of […] metabolism within the biofilm measured after 6 hrs by XTT reduction assay; type: functional
Cell membrane [9] = test: Disruption of membrane integrity in Candida albicans ATCC SC5314 assessed as cell membrane damage at 16 ug/ml incubated for 48 hrs by transmission electron microscopy; type: subcellular; settings: dose 16.0 µg/ml
Candida albicans [10] = test: Antifungal activity against FLC-resistant Candida albicans 632 assessed as fungal growth inhibition by CLSI based serial microbroth dilution method; type: functional
Candida albicans [11] = test: Antifungal activity against Candida albicans CPCC400616 assessed as fungal growth inhibition by CLSI based serial microbroth dilution method; type: functional
Cell membrane [12] = test: Disruption of membrane integrity in Candida albicans ATCC SC5314 assessed as cell wall damage at 16 ug/ml incubated for 48 hrs by transmission electron microscopy; type: subcellular; settings: dose 16.0 µg/ml
Aspergillus fumigatus = test: Antifungal activity against Aspergillus fumigatus CGMCC 3.7795 assessed as fungal growth inhibition by CLSI based serial microbroth dilution method; type: functional
Candida albicans [13] = test: Antibiofilm activity against Candida albicans […] assessed as inhibition of […] metabolism activity in the biofilm measured after 24 hrs by XTT reduction assay; type: functional
[14] = target: T1, Lanosterol 14-alpha demethylase; test: Inhibition of CYP51 in Candida albicans ATCC SC5314 assessed as unknown sterol level at 0.25 ug/ml measured after 18 hrs by GC-MS analysis (reference value: 3.07 %); design: scale not given: the % may be the effect or the level left; settings: at 0.25 µg/mL
[15] = target: T1, Lanosterol 14-alpha demethylase; test: Inhibition of CYP51 in Candida albicans ATCC SC5314 assessed as 14alpha-methylergosta-8,24(28)-dien-3beta-6alpha-diol level at 0.25 ug/ml measured after 18 hrs by GC-MS analysis relative to control; design: scale not given: the % may be the effect or the level left; settings: at 0.25 µg/mL
Candida albicans [16] = test: Antifungal activity against FLC-resistant Candida albicans 103 assessed as fungal growth inhibition by CLSI based serial microbroth dilution method; type: functional
Cell membrane [17] = test: Disruption of membrane integrity in Candida albicans ATCC SC5314 assessed as endogenous substances leakage at 16 ug/ml incubated for 48 hrs by transmission electron microscopy; type: subcellular; settings: dose 16.0 µg/ml
Candida albicans [18] = test: Antifungal activity against FLC and ITC-resistant Candida albicans 17 assessed as fungal growth inhibition by CLSI based serial microbroth dilution method; type: functional
[19] = Cytotoxicity against human HepG2 cells assessed as reduction in cell viability incubated for 96 hrs by MTT assay; type: toxicity, cell-based
Nakaseomyces glabratus = test: Antifungal activity against Candida glabrata clinical isolate assessed as fungal growth inhibition by CLSI based serial microbroth dilution method; type: functional
A549 = test: Cytotoxicity against human A549 cells assessed as reduction in cell viability incubated for 96 hrs by MTT assay; type: functional, cell-based; settings: A549, 96 h
RAW264.7 = test: Cytotoxicity against mouse RAW264.7 cells assessed as reduction in cell viability incubated for 96 hrs by MTT assay; type: functional, cell-based; settings: RAW264.7, 96 h
Pichia kudriavzevii = test: Antifungal activity against Candida krusei GIM 2.1 assessed as fungal growth inhibition by CLSI based serial microbroth dilution method; type: functional
Candida albicans [20] = test: Antifungal activity against Candida albicans ATCC SC5314 assessed as fungal growth inhibition by CLSI based serial microbroth dilution method; type: functional
Candida albicans [21] = test: Fungicidal activity against Candida albicans CPCC400616 measured after 48 hrs; type: functional
Candida albicans [22] = test: Antibiofilm activity against Candida albicans […] assessed as inhibition of […] metabolism within the biofilm measured after 3 hrs by XTT reduction assay; type: functional
Candida albicans [23] = test: Antibiofilm activity against Candida albicans […] assessed as inhibition of […] metabolism within the biofilm measured after 18 hrs by XTT reduction assay; type: functional
Candida albicans [24] = test: Antifungal activity against FLC-resistant Candida albicans 904 assessed as fungal growth inhibition by CLSI based serial microbroth dilution method; type: functional
[25] = target: T1, Lanosterol 14-alpha demethylase; test: Inhibition of CYP51 in Candida albicans ATCC SC5314 assessed as eburicol level at 0.25 ug/ml measured after 18 hrs by GC-MS analysis relative to control; design: scale not given: the % may be the effect or the level left; settings: at 0.25 µg/mL
Candida tropicalis = test: Antifungal activity against Candida tropicalis CGMCC 2.3739 assessed as fungal growth inhibition by CLSI based serial microbroth dilution method; type: functional
[26] = Cytotoxicity against human THLE-2 cells assessed as reduction in cell viability incubated for 96 hrs by MTT assay; type: toxicity, cell-based
Candida albicans [27] = test: Antifungal activity against FLC-resistant Candida albicans 100 assessed as fungal growth inhibition by CLSI based serial microbroth dilution method; type: functional
MCF7 = test: Cytotoxicity against human MCF7 cells assessed as reduction in cell viability incubated for 96 hrs by MTT assay; type: functional, cell-based; settings: MCF7, 96 h
[28] = target: T1, Lanosterol 14-alpha demethylase; test: Inhibition of CYP51 in Candida albicans ATCC SC5314 assessed as eburicol level at 0.0075 ug/ml measured after 18 hrs by GC-MS analysis relative to control; design: scale not given: the % may be the effect or the level left; settings: at 0.0075 µg/mL
[29] = target: T1, Lanosterol 14-alpha demethylase; test: Inhibition of CYP51 in Candida albicans ATCC SC5314 assessed as lanosterol level at 0.0075 ug/ml measured after 18 hrs by GC-MS analysis relative to control; design: scale not given: the % may be the effect or the level left; settings: at 0.0075 µg/mL
Candida albicans [30] = test: Fungicidal activity in Candida albicans CPCC400616 assessed as reduction in viable colony formation at 0.25 ug/ml measured within 16 hrs by time kill assay; type: functional, organism-based; settings: dose 0.25 µg/ml
[31] = Stability of the compound in human plasma assessed as half life measured after […] by LC-MS/MS analysis; type: ADME, cell-free
[32] = target: T1, Lanosterol 14-alpha demethylase; test: Inhibition of CYP51 in Candida albicans ATCC SC5314 assessed as 14alpha-methylergosta-8,24(28)-dien-3beta-6alpha-diol level at 0.0075 ug/ml measured after 18 hrs by GC-MS analysis relative to control; design: scale not given: the % may be the effect or the level left; settings: at 0.0075 µg/mL
[33] = Stability of the compound in human plasma assessed as parent compound remaining after […] by LC-MS/MS analysis; type: ADME, cell-free; settings: read-out: Stability
[34] = target: T1, Lanosterol 14-alpha demethylase; test: Inhibition of CYP51 in Candida albicans ATCC SC5314 assessed as unknown sterol level at 0.0075 ug/ml measured after 18 hrs by GC-MS analysis (reference value: 3.07 %); design: scale not given: the % may be the effect or the level left; settings: at 0.0075 µg/mL
[35] = target: T1, Lanosterol 14-alpha demethylase; test: Inhibition of CYP51 in Candida albicans ATCC SC5314 assessed as ergosterol level at 0.0075 ug/ml measured after 18 hrs by GC-MS analysis (reference value: 96.93 %); design: scale not given: the % may be the effect or the level left; settings: at 0.0075 µg/mL
[36] = Stability of the compound in human plasma assessed as parent compound remaining after 120 hrs by LC-MS/MS analysis; type: ADME, cell-free; settings: read-out: Stability

T1 sequence (P10613 whole entry): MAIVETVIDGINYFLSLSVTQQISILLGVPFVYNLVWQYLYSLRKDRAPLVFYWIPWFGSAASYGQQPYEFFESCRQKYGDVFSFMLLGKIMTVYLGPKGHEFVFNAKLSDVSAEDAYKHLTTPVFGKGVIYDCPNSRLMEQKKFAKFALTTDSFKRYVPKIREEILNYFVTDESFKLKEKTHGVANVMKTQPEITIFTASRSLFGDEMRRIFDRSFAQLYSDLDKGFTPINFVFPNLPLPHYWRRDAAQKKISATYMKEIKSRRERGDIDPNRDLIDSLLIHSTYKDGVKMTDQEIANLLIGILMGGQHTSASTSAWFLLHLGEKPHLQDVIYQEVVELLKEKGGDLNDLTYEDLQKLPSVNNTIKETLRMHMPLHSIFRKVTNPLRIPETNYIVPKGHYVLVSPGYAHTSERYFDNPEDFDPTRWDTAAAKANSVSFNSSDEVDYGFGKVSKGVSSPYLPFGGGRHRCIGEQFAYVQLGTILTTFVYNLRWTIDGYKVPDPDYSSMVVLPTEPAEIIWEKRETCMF

Structure (SMILES)	MIC (Candida albicans [1])	MIC (Cryptococcus neoformans)	MIC (Candida parapsilosis)	MIC (Candida albicans [4])	MIC (Candida albicans [5])	MIC50 (Candida albicans [6])	Activity (Cell membrane [7])	MIC50 (Candida albicans [8])	Activity (Cell membrane [9])	MIC (Candida albicans [10])	MIC (Candida albicans [11])	Activity (Cell membrane [12])	MIC (Aspergillus fumigatus)	MIC50 (Candida albicans [13])	MIC (Candida albicans [16])	Activity (Cell membrane [17])	MIC (Candida albicans [18])	IC50 at 96 h [19]	MIC (Nakaseomyces glabratus)	IC50 (A549)	also measured
OC(Cn1cncn1)(Cn1cncn1)c1ccc(F)cc1F [FLUCONAZOLE]	64 µg/mL (≈ 209 µM)	4 µg/mL (≈ 13.1 µM)	2 µg/mL (≈ 6.53 µM)	> 64 µg/mL	> 64 µg/mL	> 64 µg/mL	Active	32 µg/mL (≈ 104 µM)	Active	> 64 µg/mL	1 µg/mL (≈ 3.27 µM)	Active	> 64 µg/mL	> 64 µg/mL	> 64 µg/mL	Active	> 64 µg/mL	> 50 µM	4 µg/mL (≈ 13.1 µM)	> 50 µM	Activity [2]: 3.15%; Activity [3]: 34.42%; Activity [14]: 1.59%; Activity [15]: 22.35%; IC50 (RAW264.7): > 50 µM; MIC (Pichia kudriavzevii): 8 µg/mL (≈ 26.1 µM); MIC (Candida albicans [20]): 0.5 µg/mL (≈ 1.63 µM); MFC (Candida albicans [21]): > 64 µg/mL; MIC50 (Candida albicans [22]): 16 µg/mL (≈ 52.2 µM); MIC50 (Candida albicans [23]): 64 µg/mL (≈ 209 µM); MIC (Candida albicans [24]): 32 µg/mL (≈ 104 µM); Activity [25]: 29.02%; MIC (Candida tropicalis): 0.5 µg/mL (≈ 1.63 µM); IC50 at 96 h [26]: > 50 µM; MIC (Candida albicans [27]): > 64 µg/mL; IC50 (MCF7): > 50 µM
Fc1cccc(F)c1CC1(Cn2cncn2)COC(c2ccc(-c3ccsc3)cc2)=N1 (stereo unspecified)	0.25 µg/mL (≈ 0.573 µM)	0.06 µg/mL (≈ 0.137 µM)	0.125 µg/mL (≈ 0.286 µM)	2 µg/mL (≈ 4.58 µM)	0.25 µg/mL (≈ 0.573 µM)	> 64 µg/mL	Active	0.125 µg/mL (≈ 0.286 µM)	Active	4 µg/mL (≈ 9.16 µM)	0.015 µg/mL (≈ 0.0344 µM)	Active	16 µg/mL (≈ 36.7 µM)	16 µg/mL (≈ 36.7 µM)	1 µg/mL (≈ 2.29 µM)	Active	4 µg/mL (≈ 9.16 µM)	39.3 µM	0.06 µg/mL (≈ 0.137 µM)	> 50 µM	Activity [28]: 24.69%; Activity [29]: 31.91%; Activity (Candida albicans [30]): Active; half-life [31]: > 4.8 h; Activity [32]: 28.2%; IC50 (RAW264.7): 32.5 µM; MIC (Pichia kudriavzevii): 0.125 µg/mL (≈ 0.286 µM); MIC (Candida albicans [20]): 0.015 µg/mL (≈ 0.0344 µM); MFC (Candida albicans [21]): 0.25 µg/mL (≈ 0.573 µM); remaining [33]: 96.8%; MIC50 (Candida albicans [22]): 0.125 µg/mL (≈ 0.286 µM); MIC50 (Candida albicans [23]): 2 µg/mL (≈ 4.58 µM); MIC (Candida albicans [24]): 1 µg/mL (≈ 2.29 µM); MIC (Candida tropicalis): 0.03 µg/mL (≈ 0.0687 µM); IC50 at 96 h [26]: > 50 µM; Activity [34]: 1.92%; MIC (Candida albicans [27]): 1 µg/mL (≈ 2.29 µM); IC50 (MCF7): > 50 µM; Activity [35]: 4.61%; remaining at 120 h [36]: 98.2%
